For series [1], the system named is mice fed a high-fat, high-cholesterol, and cholate (HF/HC/BS) diet. Description: 4B9 and Ezetimibe, alone or combined, in mice fed HF/HC/BS diet (Example 3, FIG. 4). In kind it is in vivo, mouse. The note with it: sacrificed on day 7, 4B9 10 mg/kg i.p. every other day. The method, then: All data are presented as mean±SEM.
We then devised an experiment as in FIG. 4 to verify the hypothesis. Mice were randomly divided into 8 groups according to the genotype (n=6) and fed an HF/HC/BS diet. They were intragastrically administered with EZ at 10 mg/kg per day and were intraperitoneally injected with 4B9 at 10 mg/kg every other day. The mice were sacrificed on day 7 to collect their tissues.

For series [2] the following is noted: Ezetimibe used alone, clinical; cited from earlier work.
Series [3] deals with mice fed a high-fat, high-cholesterol, and cholate (HF/HC/BS) diet. In words: 4B9 and atorvastatin, alone or combined, in mice fed HF/HC/BS diet, 14 days (Example 2, FIG. 3). The note with it: 4B9 10 mg/kg/day i.p. every other day.
Protocol: 8-week-old Asgr1 knockout mice and wild-type littermates are randomly divided into 8 groups as shown in the figure according to the genotype, with 6 mice per group. The mice are given free access to water and fed a high-fat, high-cholesterol, and cholate (HF/HC/BS) diet (60% fat, 1.25% cholesterol, and 0.5% cholate). […] After 14 days, the mice are fasted for 4 hours before being sacrificed. All data are presented as mean±SEM. Statistical significance is calculated using an unpaired two-tailed Student's t-test. *p<0.05, **p<0.01, ***p<0.001. (a) Western blotting analysis of liver samples; (b) total cholesterol in serum; (c) triglyceride in serum; (d) total cholesterol in liver; (e) triglyceride in liver; (f) concentration of cholesterol in bile; (g) total cholesterol in bile; (h) concentration of bile acid in bile; (i) total bile acid in bile; (j) total cholesterol in feces; (k) body weight; (l) daily food intake; (m) ratio of liver weight to body weight; (n) blood glucose; (o) alanine transaminase in serum; (p) aspartate transaminase in serum; (q-r) real-time quantitative PCR analysis of genes related to cholesterol efflux, cholesterol synthesis and absorption, lipid synthesis, and bile acid synthesis in the liver of mice, and genes in other pathways, with cyclophilin as an internal reference; (s) hematoxylin-eosin staining of liver sections; (t) oil red O staining of liver sections.
In the experiment, wild-type littermates were used as a control. All mice were housed in an SPF (specific pathogen-free) facility and kept on a 12-hour light/12-hour dark cycle. 8-week-old male or female mice were fed a high-fat, high-cholesterol, and cholate diet (Research Diets, D12109C) as required by the experimental protocols. For treatments involving antibody neutralization or the combination of antibodies with statins or Ezetimibe, the mice were intraperitoneally injected with antibodies or intragastrically administered with drugs at specified doses. All animals were fasted for 4 hours before being sacrificed.
The collected cells or tissues were lysed in RIPA lysis buffer supplemented with protease and phosphatase inhibitors. The RIPA lysis buffer contained 50 mM Tris-HCl (pH=8.0), 150 mM NaCl, 2 mM MgCl2, 1.5% NP-40, 0.1% SDS, and 0.5% sodium deoxycholate. The protease inhibitor contained 10 μM MG-132, 10 μg/mL leupeptin, 1 mM PMSF, 5 μg/mL pepstatin, 25 μg/mL ALLN, and 1 mM DTT. The protein concentration of the lysate was determined using a BCA method (Thermo Fisher Scientific). The protein samples were incubated with membrane solubilization buffer (62.5 mM Tris-HCl (pH=6.8), 15% SDS, 8 M urea, 10% glycerol, and 100 mM DTT) and 4× loading buffer (150 mM Tris-HCl (pH=6.8), 12% SDS, 30% glycerol, 6% β-mercaptoethanol, and 0.02% bromophenol blue) at 37° C. for 30 minutes. The protein samples were separated by SDS-PAGE and transferred to a PVDF membrane, which was blocked in TBST, i.e., TBS containing 0.075% Tween 20 and 5% skim milk (3% BSA for phosphorylation experiments) for 1 hour. The membrane was incubated overnight at 4° C. with a specified primary antibody, and washed three times with TBST. Finally, Pierce ECL Plus Western blotting substrate (Thermo Fisher Scientific) was used for detection.
Blood was collected from the orbital sinus to obtain serum for the measurement of total cholesterol and triglyceride.
[4] abbreviates: EZ 10 mg/kg per day intragastric (FIGS. 4a, 4p-q).

Each structure is given as a SMILES string.

In the case of `O=C1[C@H](CC[C@H](O)c2ccc(F)cc2)[C@@H](c2ccc(O)cc2)N1c1ccc(F)cc1` [Ezetimibe, reference compound], in series [1] (8 groups of mice, EZ 10 mg/kg per day intragastric (FIG. 4j)), the body weight result is on record as “No significant differences”. The daily food intake result in series [1] (8 groups of mice, EZ 10 mg/kg per day intragastric (FIG. 4k)) is “No significant differences”. Moreover, the “ratio of liver weight to body weight” value in series [1] (8 groups of mice, EZ 10 mg/kg per day intragastric (FIG. 4l)) is on record as “No significant differences”. Further, the blood glucose entry in series [1] (8 groups of mice, EZ 10 mg/kg per day intragastric (FIG. 4m)) is reported as “No significant differences”. In addition, the ALT entry in series [1] (8 groups of mice, EZ 10 mg/kg per day intragastric (FIG. 4n)) is recorded as “No significant differences”. In series [1] (8 groups of mice, EZ 10 mg/kg per day intragastric (FIG. 4o)), the AST result is on record as “No significant differences”. For the same compound, the “total cholesterol in serum” value in series [1] (EZ 10 mg/kg per day intragastric (FIG. 4b)) is reported as “effectively reduce”. Further, the triglyceride in serum result in series [1] (EZ 10 mg/kg per day intragastric (FIG. 4c)) is on record as “effectively reduce”. Moreover, the triglyceride in liver result in series [1] (EZ 10 mg/kg per day intragastric (FIG. 4e)) is “effectively reduce”. Also, the “total amount of total cholesterol in bile” value in series [1] (EZ 10 mg/kg per day intragastric (FIG. 4g)) was “significantly inhibited”. Also, in series [1] (EZ 10 mg/kg per day intragastric (FIG. 4i)), the “total amount of total bile acid in bile” value was “significantly inhibited”. Also, the “total cholesterol in liver” value in series [1] (EZ 10 mg/kg per day intragastric (FIG. 4d)) was “effectively reduce”. Moreover, in series [1] (setting [4]), the “cholesterol efflux-related genes and their proteins (LXRs, ABCG8, ABCA1, CYP7A1) in liver” value is reported as “significant decrease”; the “lipid synthesis-related genes and their proteins (SREBP1, FASN) in liver” value is on record as “significant decrease”. For the same compound, the “reduction of the plasma concentration of LDL-c” value in series [2] was “about 20%”.
Take `CC(C)c1c(C(=O)Nc2ccccc2)c(-c2ccccc2)c(-c2ccc(F)cc2)n1CC[C@@H](O)C[C@@H](O)CC(=O)O` [atorvastatin]: the “total cholesterol in serum” value in series [3] (atorvastatin 30 mg/kg/day intragastric daily (FIG. 3b)) was “effectively reduce”. Besides, the triglyceride in serum entry in series [3] (atorvastatin 30 mg/kg/day intragastric daily (FIG. 3c)) is listed as “effectively reduce”. In addition, the triglyceride in liver entry in series [3] (atorvastatin 30 mg/kg/day intragastric daily (FIG. 3e)) was “effectively reduce”. The “total amount of total cholesterol in bile” value in series [3] (atorvastatin 30 mg/kg/day intragastric daily (FIG. 3g)) is “almost no effect”. In addition, in series [3] (atorvastatin 30 mg/kg/day intragastric daily (FIG. 3j)), the “total cholesterol in feces” value is on record as “no effect”. Besides, the “total cholesterol in liver” value in series [3] (atorvastatin 30 mg/kg/day intragastric daily (FIG. 3d)) is listed as “effectively reduce”. In addition, the body weight entry in series [3] (8 groups of mice, atorvastatin 30 mg/kg/day intragastric daily (FIG. 3k)) is “No significant differences”. For the same compound, the daily food intake result in series [3] (8 groups of mice, atorvastatin 30 mg/kg/day intragastric daily (FIG. 3l)) is on record as “No significant differences”. For the same compound, the blood glucose result in series [3] (8 groups of mice, atorvastatin 30 mg/kg/day intragastric daily (FIG. 3n)) is “No significant differences”. Moreover, the ALT result in series [3] (8 groups of mice, atorvastatin 30 mg/kg/day intragastric daily (FIG. 3o)) is given as “No significant differences”. Also, the AST entry in series [3] (8 groups of mice, atorvastatin 30 mg/kg/day intragastric daily (FIG. 3p)) was “No significant differences”.
